Reference: the supplement of paper PMC10307832

Assays:
Experiment in all cases: relative viability (nuclei count vs DMSO), 5 days (fraction); higher = more cells survive
Kobe2602 + Phenformin = compound: C1=CC(=CC=C1NC(=S)NNC2=C(C=C(C=C2[N+](=O)[O-])C(F)(F)F)[N+](=O)[O-])F [Kobe2602] + N=C(N)NC(=N)NCCc1ccccc1 [Phenformin] (partner 250 µM)
Procedure, shortened: (§1)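 Lung cancer cell lines were pin-tool dosed in 1536-well plates on the day after seeding, with either a lone drug or a fixed anchor-drug dose plus five library-drug doses (not always all listed) in √10 steps. Nuclei were counted on 4× images after 5 days. Relative viability is the ratio of treated-well to vehicle-well nuclei counts, with each value a median of duplicate plates.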

Kobe2602 + Decitabine = compound: C1=CC(=CC=C1NC(=S)NNC2=C(C=C(C=C2[N+](=O)[O-])C(F)(F)F)[N+](=O)[O-])F [Kobe2602] + Nc1ncn([C@H]2C[C@H](O)[C@@H](CO)O2)c(=O)n1 [Decitabine] (partner 2 µM)
Procedure, shortened: as §1

Cabozantinib + Alpelisib = compound: COc1cc2nccc(Oc3ccc(NC(=O)C4(C(=O)Nc5ccc(F)cc5)CC4)cc3)c2cc1OC [Cabozantinib] + Cc1nc(NC(=O)N2CCC[C@H]2C(N)=O)sc1-c1ccnc(C(C)(C)C(F)(F)F)c1 [Alpelisib] (partner 2 µM)
Procedure, shortened: as §1

Zosuquidar + Lapatinib = compound: O[C@@H](COc1cccc2ncccc12)CN1CCN([C@@H]2c3ccccc3[C@@H]3[C@H](c4ccccc42)C3(F)F)CC1 [Zosuquidar] + CS(=O)(=O)CCNCc1ccc(-c2ccc3ncnc(Nc4ccc(OCc5cccc(F)c5)c(Cl)c4)c3c2)o1 [Lapatinib] (partner 2 µM)
Procedure, shortened: as §1

Cell Line	relative viability (Kobe2602 + Phenformin; first compound 0.2 µM)	relative viability (Kobe2602 + Phenformin; first compound 0.6325 µM)	relative viability (Kobe2602 + Phenformin; first compound 2 µM)	relative viability (Kobe2602 + Phenformin; first compound 6.325 µM)	relative viability (Kobe2602 + Phenformin; first compound 20 µM)	relative viability (Kobe2602 + Decitabine; first compound 0.2 µM)	relative viability (Kobe2602 + Decitabine; first compound 0.6325 µM)	relative viability (Kobe2602 + Decitabine; first compound 2 µM)	relative viability (Kobe2602 + Decitabine; first compound 6.325 µM)	relative viability (Kobe2602 + Decitabine; first compound 20 µM)	relative viability (Cabozantinib + Alpelisib; first compound 0.02 µM)	relative viability (Cabozantinib + Alpelisib; first compound 0.06325 µM)	relative viability (Cabozantinib + Alpelisib; first compound 0.2 µM)	relative viability (Cabozantinib + Alpelisib; first compound 0.6325 µM)	relative viability (Cabozantinib + Alpelisib; first compound 2 µM)	relative viability (Zosuquidar + Lapatinib; first compound 0.01 µM)	relative viability (Zosuquidar + Lapatinib; first compound 0.03162 µM)	relative viability (Zosuquidar + Lapatinib; first compound 0.1 µM)	relative viability (Zosuquidar + Lapatinib; first compound 0.3162 µM)	relative viability (Zosuquidar + Lapatinib; first compound 1 µM)
NCI-H647	0.554	0.549	0.655	0.481	0.441	0.438	0.399	0.332	0.4	0.399	1.2	1.43	1.37	0.956	0.535	1.04	1.13	1.03	1.13	1.14
LU99A	0.814	0.916	0.79	0.906	0.931	0.913	1.01	0.746	0.955	0.859	0.469	0.495	0.429	0.502	0.543	0.918	0.954	1.11	1.05	0.982
NCI-H1666	0.594	0.572	0.534	0.581	0.573	0.725	0.693	0.69	0.724	0.812	1.02	1.09	0.924	0.972	1.03	0.534	0.713	0.875	0.754	0.579
NCI-H596	0.717	0.816	0.672	0.614	0.737	1.03	1.03	1.07	1.12	1.23	0.462	0.191	0.552	0.416	0.385	1.11	1.07	1.08	1.13	1.13
